The values that follow come from ChEMBL document CHEMBL2021792, “Tetrahydro-naphthols as orally available TRPV1 inhibitors” (Bioorg Med Chem Lett, 2012).

For data set [1], the target named is Transient receptor potential cation channel subfamily V member 1 (Homo sapiens, UniProt Q8NER1). Kind of data set: Antagonist activity at human TRPV1 expressed in CHOluc9aeq cells assessed as inhibition of capsaicin-stimulated response by aequorin and CRE-lucifearase reporter gene assay. The format is functional, cell-based.
Transient receptor potential cation channel subfamily V member 1, sequence (Q8NER1 whole entry): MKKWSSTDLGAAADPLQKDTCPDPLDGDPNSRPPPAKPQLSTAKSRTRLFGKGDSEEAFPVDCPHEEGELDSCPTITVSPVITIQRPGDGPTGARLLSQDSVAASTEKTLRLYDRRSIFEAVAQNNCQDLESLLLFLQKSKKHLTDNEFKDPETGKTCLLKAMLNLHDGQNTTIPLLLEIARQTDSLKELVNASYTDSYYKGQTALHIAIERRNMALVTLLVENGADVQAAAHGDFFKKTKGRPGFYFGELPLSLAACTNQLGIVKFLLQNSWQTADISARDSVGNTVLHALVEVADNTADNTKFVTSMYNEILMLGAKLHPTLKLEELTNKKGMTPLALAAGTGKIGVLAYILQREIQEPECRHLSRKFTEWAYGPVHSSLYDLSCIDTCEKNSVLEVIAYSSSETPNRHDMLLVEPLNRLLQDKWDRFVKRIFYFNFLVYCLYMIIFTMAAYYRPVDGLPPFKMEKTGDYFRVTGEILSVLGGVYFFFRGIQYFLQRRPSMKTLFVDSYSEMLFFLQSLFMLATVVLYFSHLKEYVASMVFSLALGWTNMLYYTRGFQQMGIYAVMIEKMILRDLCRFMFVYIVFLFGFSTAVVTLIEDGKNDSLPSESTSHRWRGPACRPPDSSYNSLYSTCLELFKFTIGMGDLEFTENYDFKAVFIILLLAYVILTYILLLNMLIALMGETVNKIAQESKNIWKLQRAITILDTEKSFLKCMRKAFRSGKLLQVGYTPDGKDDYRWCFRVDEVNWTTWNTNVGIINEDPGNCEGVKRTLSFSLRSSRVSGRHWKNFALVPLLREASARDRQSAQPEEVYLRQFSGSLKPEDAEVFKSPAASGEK
A short description of data set [2]: AUC in rat at 1 mg/kg, po. The format is ADME, organism-based. The arrangement: dose 1 mg/kg, route oral. The following applies: plasma.
Data set [3] can be described thus: Oral bioavailability in rat at 1 mg/kg. Format: ADME, organism-based. The following applies: in vivo.
Another data set deals with Plasma. Nature of the data set: Unbound fraction in rat plasma. The format is ADME, cell-free.

Take `O=C(Nc1ccc(Cl)c(C(F)(F)F)c1)Nc1cccc2cc(O)ccc12`: the IC50 in data set [1] was 18 nM.
Still for that read-out and setting: for `O=C(Nc1ccc(Cl)c(C(F)(F)F)c1)Nc1cccc2c(O)cccc12` the value was 45 nM; for `O=C(Nc1ccc(Cl)c(C(F)(F)F)c1)Nc1cccc2ccc(O)c(F)c12`, 9.1 nM; for `O=C(Nc1ccc(Cl)c(C(F)(F)F)c1)Nc1cccc2ccc(C(=O)O)cc12`, 84 nM.
Turning to `O=C(Nc1ccc(Cl)c(C(F)(F)F)c1)Nc1ccc2ccc(O)cc2c1`, the IC50 in data set [1] is 130 nM.
`Nc1ccc2cccc(NC(=O)Nc3ccc(Cl)c(C(F)(F)F)c3)c2c1`: the IC50 in data set [1] is 34 nM. Further, the AUC in data set [2] came to 217 ng·h/mL.
Take `CNc1ccc2cccc(NC(=O)Nc3ccc(Cl)c(C(F)(F)F)c3)c2c1`: in data set [1], the IC50 was 30 nM. Further, the AUC in data set [2] is 125 ng·h/mL.
As for `O=C(Nc1ccc(Cl)c(C(F)(F)F)c1)Nc1cccc2ccc(NCc3ccccc3)cc12`, the IC50 in data set [1] came out at 140 nM. Moreover, the AUC in data set [2] was 12 ng·h/mL.
In the case of `Nc1cc2c(NC(=O)Nc3ccc(Cl)c(C(F)(F)F)c3)cccc2cc1Cl`, in data set [1], the IC50 was over 1000 nM.
In the case of `CC(=O)Nc1ccc2cccc(NC(=O)Nc3ccc(Cl)c(C(F)(F)F)c3)c2c1`, the IC50 in data set [1] worked out at 530 nM. In data set [2], this molecule displayed an AUC of 1590 ng·h/mL.
For `CS(=O)(=O)Nc1ccc2cccc(NC(=O)Nc3ccc(Cl)c(C(F)(F)F)c3)c2c1`, in that order: over 1000 nM and 709 ng·h/mL.
For the molecule `NS(=O)(=O)c1ccc2cccc(NC(=O)Nc3ccc(Cl)c(C(F)(F)F)c3)c2c1`, the IC50 in data set [1] came to 710 nM.
Consider `NS(=O)(=O)Cc1ccccc1NC(=O)Nc1ccc(Cl)c(C(F)(F)F)c1`, for which the IC50 in data set [1] was determined as 460 nM.
Regarding `NS(=O)(=O)c1ccccc1NC(=O)Nc1ccc(Cl)c(C(F)(F)F)c1`, the IC50 in data set [1] was over 1000 nM.
With `O=C(Nc1ccc(Cl)c(C(F)(F)F)c1)Nc1cccc2cc[nH]c12`, the IC50 in data set [1] was found to be 67 nM. The molecule further gave an AUC in data set [2] of 176 ng·h/mL.
As to `O=C(Nc1ccc(Cl)c(C(F)(F)F)c1)Nc1cccc2nn[nH]c12`, the IC50 in data set [1] is 180 nM.
Take `O=C(Nc1ccc(Cl)c(C(F)(F)F)c1)Nc1cccc2[nH]ccc12`: the IC50 in data set [1] was 33 nM. In data set [2], the AUC came to 530 ng·h/mL.
Consider `O=C(Nc1ccc(Cl)c(C(F)(F)F)c1)Nc1cccc2nc(C(F)(F)F)[nH]c12`, for which the IC50 in data set [1] was 32 nM.
As for `Cc1nc2cccc(NC(=O)Nc3ccc(Cl)c(C(F)(F)F)c3)c2[nH]1`, the IC50 in data set [1] stood at 58 nM.
Still for that read-out and setting: for `O=C(Nc1ccc(Cl)c(C(F)(F)F)c1)Nc1ccccc1CCCO` the value was 220 nM.
Consider `O=C(Nc1ccc(Cl)c(C(F)(F)F)c1)Nc1ccccc1CCO`, for which the IC50 in data set [1] turned out to be 56 nM. This molecule came in with an AUC in data set [2] of 374 ng·h/mL.
Turning to `O=C(Nc1ccc(Cl)c(C(F)(F)F)c1)Nc1ccccc1CO`, the IC50 in data set [1] came out at 330 nM.
`NCCc1ccccc1NC(=O)Nc1ccc(Cl)c(C(F)(F)F)c1`: the IC50 in data set [1] is over 1000 nM.
For the molecule `O=C(Nc1cccc(CCO)c1)Nc1ccc(Cl)c(C(F)(F)F)c1`, in data set [1], the IC50 is 230 nM. For the same molecule, in data set [2], the AUC amounted to 75 ng·h/mL.
On to `Cc1cccc(NC(=O)Nc2ccc(Cl)c(C(F)(F)F)c2)c1CCO`, for which, in data set [1], the IC50 turned out to be 16 nM.
`O=C(Nc1ccc(Cl)c(C(F)(F)F)c1)Nc1cccc2c1CC(O)CC2` (racemic): the bioavailability in data set [3] was 74%. This molecule had a Fu with Plasma of 0.28%. In data set [2], the AUC turned out to be 650 ng·h/mL.
Take `O=C(Nc1ccc(Cl)c(C(F)(F)F)c1)Nc1cccc2c1CC(CO)CC2` (racemic): in data set [1], the IC50 is 87 nM.
On to `CC1CCc2cccc(NC(=O)Nc3ccc(Cl)c(C(F)(F)F)c3)c2C1` (racemic), for which the IC50 in data set [1] came out at 93 nM.
